Results taken from publication doi:10.1101/208439v1 (biorxiv, 2017).
Read-outs that look alike come from different tables or passages of the source.

Tests used:
MLL1 Complex = MLL1 Complex (Homo sapiens, UniProt Q03164); test: HotSpot [3H]SAM filter-binding methyltransferase assay; assay type: biochemical; set-up: gene KMT2A; five-member complex, His-tagged subunits, E. coli; ASH2L isoform of NM_001105214; with WD repeat-containing protein 5; Set1/Ash2 histone methyltransferase complex subunit ASH2; Protein dpy-30 homolog
Chain of MLL1 Complex (Q9UBL3 96-628): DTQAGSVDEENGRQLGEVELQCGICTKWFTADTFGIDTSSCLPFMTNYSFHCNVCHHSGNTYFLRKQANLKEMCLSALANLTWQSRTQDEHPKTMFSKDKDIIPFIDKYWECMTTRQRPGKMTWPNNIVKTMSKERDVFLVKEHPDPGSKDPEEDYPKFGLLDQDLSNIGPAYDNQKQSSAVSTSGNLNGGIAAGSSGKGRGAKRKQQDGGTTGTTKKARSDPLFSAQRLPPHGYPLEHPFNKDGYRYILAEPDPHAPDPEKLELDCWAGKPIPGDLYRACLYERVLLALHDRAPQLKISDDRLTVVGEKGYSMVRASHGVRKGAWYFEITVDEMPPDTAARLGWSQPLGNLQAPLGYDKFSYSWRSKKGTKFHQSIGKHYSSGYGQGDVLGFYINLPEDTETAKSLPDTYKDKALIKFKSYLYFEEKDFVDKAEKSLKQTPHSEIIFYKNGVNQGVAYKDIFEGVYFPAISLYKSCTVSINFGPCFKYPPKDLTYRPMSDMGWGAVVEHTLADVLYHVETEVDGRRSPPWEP
Chain of MLL1 Complex (Q03164 3745-3969): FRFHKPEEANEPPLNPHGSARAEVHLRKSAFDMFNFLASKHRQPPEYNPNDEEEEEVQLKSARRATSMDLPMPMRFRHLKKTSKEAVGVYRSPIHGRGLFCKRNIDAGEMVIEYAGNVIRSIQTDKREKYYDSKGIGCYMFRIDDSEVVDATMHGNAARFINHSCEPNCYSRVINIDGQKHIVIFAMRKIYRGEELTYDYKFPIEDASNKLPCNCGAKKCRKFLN
Chain of MLL1 Complex (Q9C005 whole entry, further chain, canonical isoform): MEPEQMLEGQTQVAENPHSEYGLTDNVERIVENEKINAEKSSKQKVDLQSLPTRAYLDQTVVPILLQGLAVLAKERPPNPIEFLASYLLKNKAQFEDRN
Chain of MLL1 Complex (Q15291 whole entry, further chain, canonical isoform): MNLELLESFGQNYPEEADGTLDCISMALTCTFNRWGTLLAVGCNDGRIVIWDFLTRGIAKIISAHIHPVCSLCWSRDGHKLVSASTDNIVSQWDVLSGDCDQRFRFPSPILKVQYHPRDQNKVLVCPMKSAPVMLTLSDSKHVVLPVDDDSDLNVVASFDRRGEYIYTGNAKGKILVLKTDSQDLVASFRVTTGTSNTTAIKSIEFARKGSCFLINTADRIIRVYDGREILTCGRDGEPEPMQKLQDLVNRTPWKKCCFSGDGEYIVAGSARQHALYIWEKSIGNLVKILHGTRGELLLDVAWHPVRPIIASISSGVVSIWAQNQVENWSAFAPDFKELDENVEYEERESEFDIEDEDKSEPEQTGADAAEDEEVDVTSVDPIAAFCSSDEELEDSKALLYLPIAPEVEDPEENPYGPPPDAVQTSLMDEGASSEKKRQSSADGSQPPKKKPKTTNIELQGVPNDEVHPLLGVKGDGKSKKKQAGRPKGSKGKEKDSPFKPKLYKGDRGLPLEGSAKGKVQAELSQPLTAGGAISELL

NSD2 = biological target: T1, NSD2 (Homo sapiens, UniProt O96028); test: as above; assay type: biochemical; settings: nucleosomes […], […] SAM, pH […] DTT, […] °C
T1 construct: full length (residues 2-1365), N-terminal His tag, insect cell/baculovirus
T1 sequence (O96028 2-1365): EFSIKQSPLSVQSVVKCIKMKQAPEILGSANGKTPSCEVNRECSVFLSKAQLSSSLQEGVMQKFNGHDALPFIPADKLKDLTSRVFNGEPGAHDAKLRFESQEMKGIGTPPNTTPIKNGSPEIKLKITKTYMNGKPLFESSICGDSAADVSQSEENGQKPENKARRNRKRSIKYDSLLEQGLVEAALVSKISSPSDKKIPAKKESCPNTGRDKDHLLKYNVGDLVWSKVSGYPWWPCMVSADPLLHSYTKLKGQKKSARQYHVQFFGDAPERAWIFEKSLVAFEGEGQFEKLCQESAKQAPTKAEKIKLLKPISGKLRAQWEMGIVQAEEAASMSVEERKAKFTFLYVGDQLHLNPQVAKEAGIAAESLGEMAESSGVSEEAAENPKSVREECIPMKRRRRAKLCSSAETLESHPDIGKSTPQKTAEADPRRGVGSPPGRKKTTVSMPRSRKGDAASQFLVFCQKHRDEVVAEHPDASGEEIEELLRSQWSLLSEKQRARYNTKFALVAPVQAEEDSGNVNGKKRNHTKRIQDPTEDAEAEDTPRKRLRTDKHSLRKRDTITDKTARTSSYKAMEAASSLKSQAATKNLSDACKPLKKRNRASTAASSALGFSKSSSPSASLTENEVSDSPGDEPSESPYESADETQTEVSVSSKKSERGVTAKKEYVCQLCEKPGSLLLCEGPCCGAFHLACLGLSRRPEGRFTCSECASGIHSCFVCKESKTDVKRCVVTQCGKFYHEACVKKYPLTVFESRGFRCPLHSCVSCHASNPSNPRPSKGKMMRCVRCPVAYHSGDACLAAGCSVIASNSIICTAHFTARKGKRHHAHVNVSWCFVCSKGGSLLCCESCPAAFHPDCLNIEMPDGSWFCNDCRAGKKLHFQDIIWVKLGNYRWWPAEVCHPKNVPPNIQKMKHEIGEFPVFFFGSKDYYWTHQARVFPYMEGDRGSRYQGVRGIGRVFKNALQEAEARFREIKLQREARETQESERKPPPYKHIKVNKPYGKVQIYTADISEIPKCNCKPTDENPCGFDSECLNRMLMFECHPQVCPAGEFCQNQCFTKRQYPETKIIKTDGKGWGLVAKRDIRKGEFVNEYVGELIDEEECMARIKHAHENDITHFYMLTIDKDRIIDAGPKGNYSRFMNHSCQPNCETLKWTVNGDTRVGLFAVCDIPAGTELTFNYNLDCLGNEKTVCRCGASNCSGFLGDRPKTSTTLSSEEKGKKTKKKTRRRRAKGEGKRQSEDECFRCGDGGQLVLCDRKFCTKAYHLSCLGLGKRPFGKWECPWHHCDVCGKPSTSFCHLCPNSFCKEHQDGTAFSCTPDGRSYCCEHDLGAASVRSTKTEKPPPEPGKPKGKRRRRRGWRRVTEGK

SETD2 = biological target: T2, SETD2 (Homo sapiens, UniProt Q9BYW2); test: as above; assay type: biochemical; set-up: residues 1434-1711, N-terminal GST fusion, E. coli
T2 sequence (Q9BYW2 1434-1711): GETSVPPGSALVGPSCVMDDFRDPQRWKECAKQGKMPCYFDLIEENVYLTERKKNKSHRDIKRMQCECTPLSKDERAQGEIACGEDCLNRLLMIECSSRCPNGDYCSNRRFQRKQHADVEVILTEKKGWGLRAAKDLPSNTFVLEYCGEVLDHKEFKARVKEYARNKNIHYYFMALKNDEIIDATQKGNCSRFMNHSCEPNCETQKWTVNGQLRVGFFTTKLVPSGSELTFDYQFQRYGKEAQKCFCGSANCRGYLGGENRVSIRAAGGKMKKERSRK

SMYD2 = SMYD2 (Homo sapiens, UniProt Q9NRG4); test: biochemical
Chain of SMYD2 (Q9NRG4 whole entry): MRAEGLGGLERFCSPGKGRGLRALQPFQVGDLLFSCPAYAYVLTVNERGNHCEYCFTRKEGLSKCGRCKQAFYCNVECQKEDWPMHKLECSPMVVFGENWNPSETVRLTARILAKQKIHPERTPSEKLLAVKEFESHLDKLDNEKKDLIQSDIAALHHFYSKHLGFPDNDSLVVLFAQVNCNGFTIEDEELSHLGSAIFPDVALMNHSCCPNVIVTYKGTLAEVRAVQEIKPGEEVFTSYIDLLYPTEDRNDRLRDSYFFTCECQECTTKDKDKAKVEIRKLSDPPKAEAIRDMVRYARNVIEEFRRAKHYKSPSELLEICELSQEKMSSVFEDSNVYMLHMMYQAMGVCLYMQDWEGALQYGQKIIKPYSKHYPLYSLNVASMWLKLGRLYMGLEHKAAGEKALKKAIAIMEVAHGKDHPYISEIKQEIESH

SET8 = biological target: T3, SET8 (Homo sapiens, UniProt Q9NQR1); test: biochemical
T3 construct: gene KMT5A
T3 sequence (Q9NQR1 1-393): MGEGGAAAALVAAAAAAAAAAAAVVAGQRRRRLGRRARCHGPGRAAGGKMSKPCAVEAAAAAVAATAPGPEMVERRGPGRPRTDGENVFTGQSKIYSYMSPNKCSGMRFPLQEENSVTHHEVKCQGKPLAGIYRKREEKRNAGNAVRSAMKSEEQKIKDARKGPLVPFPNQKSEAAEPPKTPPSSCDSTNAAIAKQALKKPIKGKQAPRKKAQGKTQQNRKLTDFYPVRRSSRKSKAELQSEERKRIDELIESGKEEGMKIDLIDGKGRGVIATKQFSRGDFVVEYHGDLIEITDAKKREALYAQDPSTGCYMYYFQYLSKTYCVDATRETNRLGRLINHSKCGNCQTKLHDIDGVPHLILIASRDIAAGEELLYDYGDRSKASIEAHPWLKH

NSD3 = biological target: T4, NSD3 (Homo sapiens, UniProt Q9BZ95); test: HotSpot [3H]SAM filter-binding methyltransferase assay; assay type: biochemical; set-up: residues 1021-1322, GST fusion, E. coli; settings: nucleosomes, […] SAM, Bicine pH […] DTT, […] °C, single experiment
T4 sequence (Q9BZ95 1021-1322): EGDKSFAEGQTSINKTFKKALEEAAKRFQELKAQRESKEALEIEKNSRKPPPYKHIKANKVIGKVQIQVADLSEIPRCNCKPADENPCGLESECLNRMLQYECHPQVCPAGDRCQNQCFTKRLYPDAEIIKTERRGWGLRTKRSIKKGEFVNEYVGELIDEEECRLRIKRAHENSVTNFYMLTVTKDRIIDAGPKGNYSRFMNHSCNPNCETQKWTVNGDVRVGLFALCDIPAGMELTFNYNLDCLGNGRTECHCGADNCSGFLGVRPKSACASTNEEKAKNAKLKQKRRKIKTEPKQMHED

[1] = read-out: DA3003-1 IC50, inhibitor
[2] = nucleosomes, […] SAM, pH […] MgCl2, […] DTT, […] °C, single experiment

IC50 (MLL1 Complex) [nM] | IC50 (NSD2; compound is redox-active) [nM] | IC50 (SETD2) [nM] | IC50 (SMYD2; [1]) [nM] | IC50 (SET8; [1]) [nM] | IC50 (NSD3) [nM] | IC50 (NSD2) [nM] | IC50 (SMYD2) [nM] | IC50 (SET8) [nM] | IC50 (MLL1 Complex; [2]) [nM] | IC50 (SETD2; [2]) [nM] | Structure (SMILES)
250 | 170 | 210 | 1700 | 4400 | 260 | – | – | – | – | – | O=C1C(Cl)=C(NCCN2CCOCC2)C(=O)c2ncccc21 [DA3003-1]
720 | – | 3300 | – | – | 1300 | 1700 | 44000 | 5300 | – | – | CC1(C)CCC(CN2CCN(c3ccc(C(=O)NS(=O)(=O)c4ccc(NCC5CCOCC5)c([N+](=O)[O-])c4)c(Oc4cnc5[nH]ccc5c4)c3)CC2)=C(c2ccc(Cl)cc2)C1 [ABT-199]
– | – | – | – | – | 2300 | 8500 | 21000 | 44000 | 3200 | 13000 | COc1cccc(-n2nc(C(=O)O)cc2-c2ccc(C3CCCCC3)c(Cl)c2)c1 [TC LPA5 4]
